The record followed here is patent US20250042912A1, “NOVEL NON-FLUORINATED QUINOLONE COMPOUND AND USE THEREOF” (priority 2021, published 2025).

Experiment [1] has as its system acne model mice (Propionibacterium acnes ATCC 6919 injected into the left ear). The experiment is described as follows: Acne model in mice: auricular thickness, redness and swelling of the left ear. Format: in vivo, Balb/C mice. The method, then:
Experimental strain: Propionibacterium acnes ATCC 6919 (Beijing Biobw Biotechnology Co., Ltd.) Experimental animals: Balb/C mice (Zhejiang Vital River Laboratory Animal Technology Co., Ltd.) Balb/C mice were grouped and numbered, and adaptively fed for one week. On the day of modeling, Propionibacterium acnes was taken, and OD600 was measured using a microplate reader. BH1 culture medium was diluted to OD600=1 (about 5×10^8 CFU/mL), centrifuged to discard supernatant, and the remaining culture was diluted to 1×10^8 CFU/mL with PBS. Once the molding began, the mice were anesthetized with a small animal anesthesia machine, the air flow and isoflurane content of the anesthesia machine were adjusted, and the mice were placed in an anesthesia induction chamber for anesthesia induction. After there were no obvious signs of activity, the mice were taken out and their toes were clamped with tweezers or hemostatic forceps for toe pinching reaction testing, if there was no retraction pain response, the surgery could be performed. The anesthetized mice were placed on a mice plate and fixed, the air flow or isoflurane content was adjusted to maintain anesthesia (isoflurane anesthesia induction content of 3% to 4%, anesthesia maintenance content of 1% to 2%, and air flow rate of 300 mL/min to 500 mL/min). Blank control group: 20 μL of PBS was intracutaneously injected into the left ear of each mouse. Model group, drug group to be tested: 20 μL suspension of Propionibacterium acnes in PBS was intracutaneously injected into the left ear of each mouse. After the injection of Propionibacterium acnes, the mice in each group were administered according to the methods of administration and dosages described in Table 5 at 4 hours, 20 hours, 28 hours, and 44 hours. […] The drugs to be tested included Compound 6, Compound 7, and Compound 12, all of which were in a form of hydrochloride. In this experiment, Compound 6, Compound 7, and Compound 12 all referred to the corresponding hydrochloride drugs with a solvent of 40% DMSO+60% glycerol, the drugs were added into DMSO, heated to 100° C. in a water bath, and then glycerol was added thereto to obtain a bright yellow viscous solution. Administration area: Propionibacterium acnes was injected into the left ear. Administration time: the drugs were administrated at 4 hours, 20 hours, 28 hours, and 44 hours post-injection of Propionibacterium acnes, a total of 4 times. Balb/C mice were anesthetized with a small animal anesthesia machine and isoflurane in Compound 6 group, Compound 7 group, Compound 12 group, and model group. […] Auricular thickness measurement: after Propionibacterium acnes was injected for 48 hours, the auricular thicknesses of mice were measured with a vernier caliper.

Another experiment deals with IL-6. The experiment is described as follows: Acne model in mice: IL-6 level in left ear tissue. Format: in vivo, Balb/C mice. The method, then: Experimental strain: Propionibacterium acnes ATCC 6919 (Beijing Biobw Biotechnology Co., Ltd.) Experimental animals: Balb/C mice (Zhejiang Vital River Laboratory Animal Technology Co., Ltd.) Balb/C mice were grouped and numbered, and adaptively fed for one week. On the day of modeling, Propionibacterium acnes was taken, and OD600 was measured using a microplate reader. BH1 culture medium was diluted to OD600=1 (about 5×10^8 CFU/mL), centrifuged to discard supernatant, and the remaining culture was diluted to 1×10^8 CFU/mL with PBS. Once the molding began, the mice were anesthetized with a small animal anesthesia machine, the air flow and isoflurane content of the anesthesia machine were adjusted, and the mice were placed in an anesthesia induction chamber for anesthesia induction. […] Mouse BCA protein detection: after Propionibacterium acnes was injected for 48 hours, the BCA protein detection was detected by using the BCA protein concentration assay kit. The left ear of mouse was homogenized with 1 mL of PBS and the dilution factor equivalent to a mass volume ratio of 1:9 was calculated, then centrifuged at 1500 g for 10 minutes. […] […] was measured with a microplate reader, the standard curves were plotted, and the BCA concentrations were calculated. […]

With `CN(C)c1cc2c(cn1)-c1ccc3c(=O)c(C(=O)O)cn(C4CC4)c3c1COC2` [Compound 6], the “redness and swelling on the left ears of mice” value in experiment [1] (Balb/C mice acne model, macroscopic, after treatment, drugs as hydrochloride, in words) is given as “reduced to varying degrees”. Besides, in experiment [1] (Balb/C mice, left ear, 48 hours after injection of Propionibacterium acnes, 15 μL applied at 4, 20, 28, 44 hours, drugs as hydrochloride), the “Auricular thickness (% of Blank) Mean ± SD” value is reported as 112.71 ± 17.19 % of Blank. For the same compound, the “Auricular thickness Mean ± SD” value in experiment [1] (Balb/C mice, left ear, 48 hours after injection of Propionibacterium acnes, 15 μL applied at 4, 20, 28, 44 hours, drugs as hydrochloride in 40% DMSO+60% glycerol) was found to be 0.51 ± 0.08 mm. The “auricular thicknesses of the left ears of mice after treatment” value in experiment [1] (compared with acne model group, p<0.05, in words) is “significantly reduced”. In addition, the “IL-6 Mean ± SD” value in the experiment with IL-6 (Balb/C mice, left ear homogenate, 48 hours after injection of Propionibacterium acnes, 15 μL applied at 4, 20, 28, 44 hours, drugs as hydrochloride) came to 322.4 ± 43.33 pg/mg. Also, the “IL-6 content in the left ear tissues of mice after treatment” value with IL-6 (compared with acne model group, p<0.001, in words) is given as “significantly reduced”.
